This is an account of results in patent publication US20040152766A1, “Composition comprising demethylcantharidin in combination with platinum-containing anticancer agents and use thereof” (priority 2003, published 2004).

One may read the IC50 as the point on the concentration scale where inhibition reaches its midpoint.

Each structure is given as a SMILES string. Values joined by “and” are separate entries in the source; they are usually repeats but may differ in a detail not shown here. Identical values can stand only once. Like-named read-outs stand apart in the source and are kept apart here.

In experiment [1] the test system is Cisplatin-resistant L1210 mouse leukaemia. The following applies: for fold-resistant (cross-resistance): Dm in CDDP-resistant L1210 versus sensitive L1210.
Procedure: (§6) In vitro drug exposure: Trypsinized cells were adjusted to a concentration of 2×10^5 cells/ml in complete medium and for each drug to be tested, 0.1 ml of the cell suspension was added to each of the 24 wells of a 96-well microtitre plate. The plate was then incubated at standard conditions for 24 hours in order to allow the cells to attach to the bottom of the well and resume exponential growth. To each well of the control cultures and drug/concentration combination, 0.1 ml of complete medium and drug solution respectively was added. Each drug/concentration combination consisted of 4 replicates while control cultures consisted of 12 replicates. 12 replicates of blank consisting of 0.2 ml complete medium were set aside to account for the background. The cultures were incubated for an additional 72 hours. All experiments were repeated at least 3 times on different occasions.
(§7) MTT assay: The MTT (tetrazolium) assay was used to determine the growth-inhibitory effects of different drugs. A 5 mg/ml solution of MTT (3-(4,5-dimethylthiazol-2-yl)-2,5-diphenyltetrazolium bromide) was prepared in phosphate buffer saline (pH 7.4), filter (0.22 μm) sterilized and stored at −20° C. To each well, 0.02 ml of the MTT solution was added and the plates were incubated at standard conditions for 4 hours. The media from each well was then removed and 0.1 ml of DMSO (dimethylsulfoxide) was added to each well to solubilize the colored dye produced from the metabolic reduction of MTT. The amount of reduced MTT was determined by spectrophotometric means (570 nm).
(§8) Platinum compounds were evaluated alone and in combination with demethylcantharidin (DMC) for their cytotoxic effects. The cytotoxicity for the compounds was determined by the MTT assay as described above. The median-effect principle and combination-index isobologram method of Chou and Talalay was used to determine the dose-effect parameters for cisplatin, DMC, or their mixtures at different combination ratios. Each drug or mixture was 3-fold serially diluted to generate a dose-effect relationship in the cytotoxic assays.
(§9) Combinations of cisplatin and DMC were evaluated for synergism, additive effect or antagonism using the median-effect plot and combination-index isobologram method of Chou and Talalay references 1-4.
This method involves plotting dose-effect curves for each agent and their combinations in multiply-diluted concentrations by using the median-effect equation [3,6]
where fa is the fraction of cells affected (ie, fraction of cells killed), fu the fraction unaffected (i.e. fraction of cells surviving; fa=1−fu), D the dose of drug and Dm the dose causing the median effect
The parameters m, Dm, and r are the slope, antilog of x-intercept, and the linear correlation coefficient of the median-effect plot, which signifies the shape of the dose-effect curve, the potency (IC50), and conformity of the data to the mass-action law, in references 3, 5 and 6, respectively. Dm and m values are used for calculating the combination index (CI) values.
CI<1, CI=1, and CI>1 indicate synergism, additivity, and antagonism, respectively. As based on the classic isobologram equation, CI can be calculated by equation:
CI=[(D)1/(Dx)1]+[(D)2/(Dx)2]+[α(D)1(D)2]/[(Dx)1(Dx)2),
Both the mutually non-exclusive and exclusive drug interaction as defined by Chou and Chou (reference 7) were evaluated.
To preclude a false-positive result, classical isobologram curve tracing was used to confirm the synergistic effect at a reasonable fractional cytotoxic effect (fa=50%).
In experiment [2] the test system is L1210 mouse leukaemia. Description: In vitro antitumor-drug screening, tetrazolium (MTT) microculture assay, L1210. It is filed as cell-based. The protocol:
(§1) Test complexes 1-5, DMC, hydrolyzed DMC, cantharidin, together with controls cisplatin and carboplatin, were screened for in vitro antitumor activity against a series of human cancer cell lines and mouse leukaemia L1210, using a tetrazolium microculture assay.
(§2) Drugs: Drugs to be tested were dissolved in complete medium at twice the highest concentration to be used, followed by filter (0.22 μm) sterilization. A series of log dilutions were made of each drug solution using complete medium. All drug solutions were prepared within 10 minutes before adding to the cells.
(§3) Cells: MDA-MB-231 (human breast), SK-OV-3 (human ovarian), SK-Hep-1 (human liver), COLO320DM (human colon), L1210 (mouse leukaemia), NCI:H460 (human lung) and NTERA-Scl-D1 (human testicular) were obtained from the American Type Culture Collection (ATCC).
(§4) The cultures were incubated for an additional 72 hours.
(§5) Data analysis: The mean OD for all 12 control wells was determined. For each concentration of each drug, the mean OD of the 4 wells was determined. All mean OD was subtracted from the blank to account for the background. The “Percent of Control” values were determined and plotted. The concentration of drug resulting in 50% growth inhibition (IC50) was determined using the software Prism 3.0 by fitting the graph into sigmoidal dose-response curve.

The test system of experiment [3] is COLO320DM human colon cancer. Description: In vitro antitumor-drug screening, MTT assay, COLO320DM. It is filed as cell-based. The method, then:
as §1, §2, §3, §4, §5

The test system of experiment [4] is SK-Hep-1 human liver cancer. Description: In vitro antitumor-drug screening, MTT assay, SK-Hep-1. It is filed as cell-based. The method, then:
as §1, §2, §3, §4, §5
(In general: Formazan colour is commonly taken as a measure of viable cells.)

Experiment [5] relates to SK-OV-3 human ovarian cancer. Description: In vitro antitumor-drug screening, MTT assay, SK-OV-3. It is filed as cell-based. The protocol: as §1, §2, §3, §4, §5
Experiment [6] relates to MDA-MB-231 human breast cancer. The experiment in a line: In vitro antitumor-drug screening, MTT assay, MDA-MB-231. It is filed as cell-based. The method, then: as §1, §2, §3, §4, §5
Experiment [7] relates to Sensitive parental L1210 mouse leukaemia. Description: cells. It is filed as cell-based. The following applies: 72-hr exposure, fa = 50%.
Procedure: as §6, §7, §8, §9
This method involves plotting dose-effect curves for each agent and their combinations in multiply-diluted concentrations by using the median-effect equation [3,6] […]
CI<1, CI=1, and CI>1 indicate synergism, additivity, and antagonism, respectively. As based on the classic isobologram equation, CI can be calculated by equation: […]
Both the mutually non-exclusive and exclusive drug interaction as defined by Chou and Chou (reference 7) were evaluated. […]
Experiment [8] deals with NTERA-S cl D1 human testicular cancer. Description: In vitro antitumor-drug screening, MTT assay, NTERA-S cl D1. It is filed as cell-based. The following applies: n = 12-16 from 3-4 independent experiments, read-out: Growth-inhibitory activity IC50 ± sd. The protocol:
as §1, §2, §3, §4, §5

In experiment [9] the test system is NCI: H460 human lung cancer. The experiment in a line: In vitro antitumor-drug screening, MTT assay, NCI:H460. It is filed as cell-based. The following applies: n = 12-16 from 3-4 independent experiments, read-out: Growth-inhibitory activity IC50 ± sd. The protocol:
as §1, §2, §3, §4, §5

The mark [10] stands for this setting: Mus musculus, L1210, Table 1, read-out: In vitro antitumor activity IC50.
[11] abbreviates: Homo sapiens, COLO 320DM, COLO320DM, Table 1, read-out: In vitro antitumor activity IC50.
[12] abbreviates: Homo sapiens, SK-HEP1, SK-Hep-1, Table 1, read-out: In vitro antitumor activity IC50.
Where [13] appears, read: Homo sapiens, SK-OV-3, Table 1, read-out: In vitro antitumor activity IC50.
The mark [14] stands for this setting: Homo sapiens, MDA-MB-231, Table 1, read-out: In vitro antitumor activity IC50.
[15] abbreviates: L1210 mouse leukaemia, n = 12-16 from 3-4 independent experiments, read-out: Growth-inhibitory activity IC50 ± sd.
[16] abbreviates: COLO320-DM human colon cancer, n = 12-16 from 3-4 independent experiments, read-out: Growth-inhibitory activity IC50 ± sd.
Setting [17] is: SK-Hep-1 human liver cancer, n = 12-16 from 3-4 independent experiments, read-out: Growth-inhibitory activity IC50 ± sd.
[18] abbreviates: SK-OV-3 human ovarian cancer, n = 12-16 from 3-4 independent experiments, read-out: Growth-inhibitory activity IC50 ± sd.
[19] abbreviates: MDA-MB-231 human breast cancer, n = 12-16 from 3-4 independent experiments, read-out: Growth-inhibitory activity IC50 ± sd.
[20] abbreviates: sensitive parental L1210, read-out: Dm (i.e. IC50), antilog of x-intercept of the median-effect plot.

`O=C1[O][Pt]2([NH]C3CCCCC3[NH]2)[O]C(=O)C2C3CCC(O3)C12` (stereo not drawn) [Complex 5]: the “fold-resistant (cross-resistance)” value in experiment [1] is “negligible cross-resistance”.
Take `C[C@@]12C(=O)OC(=O)[C@]1(C)[C@H]1CC[C@@H]2O1` [Cantharidin]: the IC50 in experiment [2] (setting [10]) was determined as 38.9 µM; in experiment [3] (setting [11]) it was 35.6 µM; in experiment [4] (setting [12]), 3.34 µM; in experiment [5] (setting [13]), 4.98 µM; in experiment [6] (setting [14]), 10.6 µM.
As for `O=C1OC(=O)C2C3CCC(O3)C12` (stereo not drawn) [DMC, Demethylcantharidin], the IC50 in experiment [7] (Mus musculus, L1210, 72 h, read-out: Dm (i.e. IC50), antilog of x-intercept of the median-effect plot, sensitive parental L1210) worked out at 11.2 µM; in [2] (setting [10]), 13.9 µM; in experiment [3] (setting [11]), 19.3 µM; in [4] (setting [12]), 11.5 µM; in [5] (setting [13]), 53.8 µM; in experiment [6] (setting [14]) it was 31.8 µM. Further, the figures for the “fold-resistant (cross-resistance)” value in experiment [1] and in experiment [1] (listed as demethylcantharidin (DMC)) were 1.1 fold and “negligible cross-resistance”, respectively.
Take `C[NH][Pt]1([NH]C)[O]C(=O)C2C3CCC(O3)C2C(=O)[O]1` (stereo not drawn) [Complex 3]: the IC50 in experiment [2] (setting [15]) was 6.19 ± 2.67 µM; in experiment [8] it was 840 ± 200 nM; in experiment [3] (setting [16]), 48.9 ± 10.5 µM; in experiment [4] (setting [17]), 15.4 ± 6.04 µM; in [9], 3.44 ± 1.98 µM; in experiment [5] (setting [18]), 37.2 ± 13.4 µM. Further, the IC50 in experiment [6] (setting [19]) is 49.4 ± 9.42 µM.
With `O=C1[O][Pt]2([NH][C@@H]3CCCC[C@H]3[NH]2)[O]C1=O` [Oxaliplatin], the “fold-resistant (cross-resistance)” value in [1] was “different degree of cross-resistant”.
On to `N.N.[Cl][Pt][Cl]` [Cisplatin, reference compound], for which the IC50 in experiment [7] (setting [20]) was found to be 0.603 µM; in experiment [2] (setting [15]) it was 0.51 ± 0.11 µM; in [8] it was 190 ± 100 nM; in experiment [3] (setting [16]), 11.9 ± 1.5 µM; in [1], 24.6 µM; in experiment [4] (setting [17]) it was 54.1 ± 9.81 µM. For the same compound, the IC50 in [9] was found to be 11.3 ± 4.93 µM; in experiment [5] (setting [18]), 15.2 ± 11.8 µM; in experiment [6] (setting [19]) it was 65.7 ± 4.39 µM. The “DRI for cisplatin, resistant versus sensitive parental cell line” value in experiment [1] (Cisplatin:DMC 1:1.67 (resistant) versus 1:1.49 (sensitive)) is recorded as “about 5.5 fold”. For the same compound, the “fold-resistant (cross-resistance)” value turned out to be 40.8 fold in experiment [1] and 40 fold in experiment [1] (listed as cisplatin).
In the case of `N.N.O=C([O-])C1(C(=O)[O-])CCC1.[Pt+2]` [Carboplatin, reference compound], the IC50 in experiment [7] (setting [20]) is 10.6 µM; in [2] (setting [15]) it was 10.1 ± 3.71 µM; in experiment [8], 2750 ± 1130 nM; in [3] (setting [16]), 188 ± 35.8 µM; in experiment [1], 154 µM; in experiment [4] (setting [17]), 501 ± 86.6 µM. In addition, the results for the IC50 in [9], in experiment [5] (setting [18]) and in experiment [6] (setting [19]) were 60.3 ± 16.4 µM, 149 ± 34.1 µM and 1080 ± 157 µM, respectively. The “fold-resistant (cross-resistance)” value in experiment [1] was 14.5 fold; in experiment [1] (listed as carboplatin) it was roughly 15 fold.
Regarding `[NH2][Pt]1([NH2])[O]C(=O)C2C3CCC(O3)C2C(=O)[O]1` (stereo not drawn) [Complex 1], the IC50 in experiment [7] (setting [20]) was found to be 5.15 µM; in [2] (setting [15]), 2.71 ± 0.4 µM; in experiment [8] it was 360 ± 250 nM; in [3] (setting [16]), 37.2 ± 7.14 µM; in [1], 42.4 µM; in [4] (setting [17]) it was 20.6 ± 5.89 µM. For the same compound, the results for the IC50 in experiment [9], in [5] (setting [18]) and in experiment [6] (setting [19]) were 21.1 ± 10.7 µM, 40.8 ± 14.3 µM and 63.8 ± 8.28 µM, respectively. Also, the “fold-resistant (cross-resistance)” value was 8 fold and 8.2 fold in experiment [1]; “different degree of cross-resistant” in [1] (listed as complex 1).
For the compound `CC(C)[NH][Pt]1([NH]C(C)C)[O]C(=O)C2C3CCC(O3)C2C(=O)[O]1` (stereo not drawn) [Complex 2], the IC50 in experiment [2] (setting [15]) was 12.1 ± 2.35 µM; in experiment [8] it was 1440 ± 410 nM; in experiment [3] (setting [16]), 84.7 ± 9.68 µM; in experiment [4] (setting [17]), 17.2 ± 8.07 µM; in [9], 26.5 ± 8.09 µM; in [5] (setting [18]), 77.7 ± 19.8 µM. The IC50 in experiment [6] (setting [19]) turned out to be 94.5 ± 9.61 µM.
Turning to `O=C(O)C1C2CCC(O2)C1C(=O)O` (stereo not drawn) [Hydrolyzed DMC], the IC50 in experiment [2] (L1210, Table 1, read-out: In vitro antitumor activity IC50) was 8.33 µM; in [3] (COLO320DM, Table 1, read-out: In vitro antitumor activity IC50), 46.5 µM; in experiment [4] (SK-Hep-1, Table 1, read-out: In vitro antitumor activity IC50) it was 7.2 µM; in [5] (SK-OV-3, Table 1, read-out: In vitro antitumor activity IC50), 46.6 µM; in [6] (MDA-MB-231, Table 1, read-out: In vitro antitumor activity IC50), 41.7 µM.
With `CC[NH][Pt]1([NH]CC)[O]C(=O)C2C3CCC(O3)C2C(=O)[O]1` (stereo not drawn) [Complex 4], the IC50 in experiment [2] (setting [15]) turned out to be 5.92 ± 1.94 µM; in experiment [8], 600 ± 240 nM; in experiment [3] (setting [16]), 48.5 ± 9.95 µM; in [4] (setting [17]), 20 ± 5.52 µM; in experiment [9], 3.91 ± 2.65 µM; in [5] (setting [18]) it was 62.6 ± 33.5 µM. Besides, the IC50 in experiment [6] (setting [19]) turned out to be 62.5 ± 13.3 µM.
